Experimental data as given in patent publication US11938143B2, “Compositions comprising 2′-deoxycytidine analogs and use thereof for the treatment of sickle cell disease, thalassemia, and cancers” (AkiraBio, Inc., priority 2021, dated 2024).

How the values were obtained:
HbF = assay: F-cells and MFI by flow cytometry in sickle erythroid progenitors; format: cell-based, human; settings: 48 hours
Experimental: FIGS. 8A-8D show representative data pertaining to the induction of AB1 HbF and inhibition of DNMT1 levels. Sickle erythroid progenitors were treated with the various agents shown for 48 hours. […] Shown in the graph is the mean±SEM for n=6 replicates. […] In FIGS. 8C-8D, “UT” indicates untreated cells; “HU” indicates hydroxyurea; “DEC” indicates decitabine; and “AB1” indicates disclosed compound AB1; the concentrations are indicated above the graph below the text indicating treatment compound.
Additional studies were carried out in primary sickle erythroid progenitors were next conducted. Using a previously established two-phase culture system, (See NRF2 mediates γ-globin gene regulation and fetal hemoglobin induction in human erythroid progenitors Xingguo Zhu et al., Experimental Hematology 2019; 70:85-96, incorporated by reference herein) AB1 was evaluated in progenitors cultured from peripheral blood mononuclear cells (PBMC) isolated from sickle cell subjects, at concentrations of 3, 6, and 10 nM. […] Cell viability was assessed with Trypan blue, and markers of erythroid differentiation were assessed by flow cytometry using antibodies for CD71 and CD235a, to evaluate changes in differentiation. […]
We assessed effects of AB1 at the transcription levels by RT-qPCR analysis. […]

[1] = tested on: sickle erythroid progenitors; assay: Erythroid differentiation markers CD71 and CD235a by flow cytometry in sickle erythroid progenitors; format: cell-based, human; settings: 48 hours
Experimental: (§1) FIGS. 6A-6B show representative data pertaining to primary sickle erythroid progenitors generated from peripheral blood mononuclear cells isolated from sickle cell patients using a two-phase liquid culture system. Cells treated for 48 hours were analyzed. […] Shown in the graph is the mean±SEM for n=6.
Additional studies were carried out in primary sickle erythroid progenitors were next conducted. Using a previously established two-phase culture system, (See NRF2 mediates γ-globin gene regulation and fetal hemoglobin induction in human erythroid progenitors Xingguo Zhu et al., Experimental Hematology 2019; 70:85-96, incorporated by reference herein) AB1 was evaluated in progenitors cultured from peripheral blood mononuclear cells (PBMC) isolated from sickle cell subjects, at concentrations of 3, 6, and 10 nM. PBMCs were isolated by Ficoll® Paque separation and cultured in IMDM supplemented with erythropoietin (2 IU), stem cell factor (10 ng/mL) and Interleukin 3 (10 ng/mL). On day seven, drug controls HU 75 μM, Dec 200 nM and AB1 (3, 6, and 10 nM) were added for 48 hours. Cell viability was assessed with Trypan blue, and markers of erythroid differentiation were assessed by flow cytometry using antibodies for CD71 and CD235a, to evaluate changes in differentiation. Proportions of F-cells and MFI were assayed by FACScan using staining with fluorescein isothiocyanate (FITC) anti-human HbF antibody (Bethyl). In our experience, primary erythroid progenitors are more sensitive to drug toxicity, so a lower dose range of AB1 was used. […] As a marker of early erythroid differentiation, CD71^+ progenitors were not affected by Dec or AB1 at any dose tested. In notable contrast, there was a 7-fold increase in CD71^+ cells mediated by HU (FIG. 6B).

[2] = tested on: sickle erythroid progenitors; assay: In vitro sickling of erythroid progenitors under overnight hypoxia (2% oxygen); format: cell-based, human; settings: 48 hours treatment then overnight at 2% oxygen; AB1 3, 6, 10 nM; decitabine 200 nM; HU 75 μM
Experimental: FIGS. 9A-9B show representative data pertaining to various treatments and reduction of the level of sickle erythroid progenitors. After sickle progenitors were treated with the various drugs for 48 hours as indicated, and then incubated overnight in hypoxia conditions. […] In FIGS. 9A-9B, “UT” indicates untreated cells; “HU” indicates hydroxyurea; “DEC” indicates decitabine; and “AB1” indicates disclosed compound AB1; the concentrations are indicated, and concentration used is adjacent to the text indicating treatment compound.
We assessed effects of AB1 at the transcription levels by RT-qPCR analysis. […] Complementary studies at the protein levels were completed by flow cytometry and Western blot. […] To further support the notion that AB1 induces HbF expression, Western blot analysis was performed. […] It was observed that there was a dose-dependent 80% decrease in DNMT1 in sickle erythroid progenitors at the highest AB1 10 nM concentration (FIG. 8 D). […] After treatment for 48 hours, with the various drugs, the cells were incubated overnight at 2% oxygen, then fixed with formalin and the number of sickle versus non-sickle cells counted by phase contrast microscopy, a method previously published by the Pace (PI/PD) group (see Zhu, X., Li, B. & Pace, B. S. Haematologica 102, e285-e288, doi:10.3324/haematol.2016.160788 (2017)). […]

[3] = Cell viability of primary sickle erythroid progenitors by Trypan blue; format: cell-based; settings: human, HU 75 μM, read-out: drop in cell viability
Experimental: as §1
Additional studies were carried out in primary sickle erythroid progenitors were next conducted. Using a previously established two-phase culture system, (See NRF2 mediates γ-globin gene regulation and fetal hemoglobin induction in human erythroid progenitors Xingguo Zhu et al., Experimental Hematology 2019; 70:85-96, incorporated by reference herein) AB1 was evaluated in progenitors cultured from peripheral blood mononuclear cells (PBMC) isolated from sickle cell subjects, at concentrations of 3, 6, and 10 nM. PBMCs were isolated by Ficoll® Paque separation and cultured in IMDM supplemented with erythropoietin (2 IU), stem cell factor (10 ng/mL) and Interleukin 3 (10 ng/mL). On day seven, drug controls HU 75 μM, Dec 200 nM and AB1 (3, 6, and 10 nM) were added for 48 hours. Cell viability was assessed with Trypan blue, and markers of erythroid differentiation were assessed by flow cytometry using antibodies for CD71 and CD235a, to evaluate changes in differentiation. […]

SMILES | F-cell levels (HbF; average of SCD patients, increase from 16%, all AB1 concentrations tested, Dec 200 nM) [%] | CD71+ progenitors (marker of early erythroid differentiation) ([1]; Dec 200 nM, AB1 at any dose tested (3, 6, 10 nM)) | level of CD235a+ cells (marker of terminal differentiation) ([1]; HU 75 μM, Dec 200 nM, AB1 3, 6, 10 nM) | decrease in sickle cells [2] [%] | F-cell induction (HbF; HU 75 μM, all patient data combined) | cytotoxicity at 48 h, 75 μM [3] [%] | increase in CD71+ cells ([1]; HU 75 μM) [fold]
Nc1ncn([C@H]2C[C@H](O)[C@@H](CO)O2)c(=O)n1 [Dec, 4-amino-1-(2-deoxy-b-D-erythro-pentofuranosyl)-1,3,5-triazin-2(1H)-one] | 22 | not affected | increased by all drugs except Dec | 80 |  |  | 
NC(=O)NO [HU, hydroxyurea] |  |  |  | 50 | not observed | 40 | 7
